The source of these data is patent publication US7718186B2, “2-alkoxy-6-alkylphenyl-substituted spirocyclic tetramic acid derivatives” (Bayer CropScience AG, priority 2004, dated 2010).

What all share (type): in vivo
For experiment [1], the system named is Lolium multiflorum. The experiment can be described thus: Herbicidal post-emergence action. The settings on record: greenhouse, 320 g of a.i./ha. How it is done:
(§1) 2. Herbicidal Post-emergence Action
(§2) Seeds of monocotyledonous and dicotyledonous weed and crop plants are placed into sandy loam in wood fiber pots, covered with soil and cultivated in the greenhouse under good growth conditions. Two to three weeks after sowing, the test plants are treated at the one-leaf stage. The test compounds, formulated as wettable powders (WP), are then, in various dosages with a water application rate of 600 l/ha (converted), with 0.2% of wetting agent added, sprayed onto the green parts of the plants. After the test plants have been kept in the greenhouse under optimum growth conditions for about 3 weeks, the effect of the preparations is rated visually in comparison to untreated controls (herbicidal effect in percent (%): 100% effect=the plants have died, 0% effect=like control plants).

Experiment [2] deals with Setaria viridis. The experiment is described as follows: Herbicidal post-emergence action. The settings on record: greenhouse, 320 g of a.i./ha. How it is done:
as §1, §2

For experiment [3], the system named is Echinocloa crus-galli. The experiment is described as follows: Herbicidal post-emergence action. Conditions: greenhouse, 320 g of a.i./ha. How it is done: as §1, §2
Experiment [4] has as its system Lolium multiflorum. The experiment can be described thus: Herbicidal pre-emergence action. The settings on record: greenhouse, 320 g of a.i./ha. From the text: (§3) 1. Herbicidal Pre-emergence Action
(§4) Seeds of monocotyledonous and dicotyledonous weed and crop plants are placed into sandy loam in wood fiber pots and covered with soil. The test compounds, formulated in the form of wettable powders (WP) are then, as an aqueous suspension with a water application rate of 600 l/ha (converted), with 0.2% of wetting agent added, applied to the surface of the covering soil in various dosages.
(§5) After the treatment, the pots are placed in the greenhouse and kept under good growth conditions for the test plants. The visual assessment of the emergence damage on the test plants is carried out after a trial period of 3 weeks by comparison with untreated controls (herbicidal effect in percent (%): 100% effect=the plants have died, 0% effect=like control plants).

Experiment [5] deals with Avena sativa. The experiment can be described thus: Herbicidal pre-emergence action. Conditions: greenhouse, 320 g of a.i./ha.
Source text: as §3, §4, §5

Experiment [6] concerns Setaria viridis. The experiment can be described thus: Herbicidal pre-emergence action. The settings on record: greenhouse, 320 g of a.i./ha.
Source text: as §3, §4, §5

Experiment [7] relates to Summer wheat. The experiment can be described thus: Container trials with cereal in a greenhouse, with and without safener (post-emergence). Conditions: crop damage, 28 days after application. How it is done: (§6) Herbicidal Post-emergence Action
(§7) Seeds of monocotyledonous and dicotyledonous weed and crop plants are placed into sandy loam in wood fiber pots or in plastic pots, covered with soil and cultivated in a greenhouse, during the vegetation period also outdoors outside of the greenhouse, under good growth conditions. Two to three weeks after sowing, the test plants are treated at the one- to three-leaf stage. The test compounds, formulated as wettable powders (WP) or liquid (EC) are, in various dosages with a water application rate of 300 l/ha (converted), with wetting agent (0.2 to 0.3%) added, sprayed onto the plants and the surface of the soil. Three to four weeks after the treatment of the test plants, the effect of the preparations is rated visually in comparison to untreated controls (herbicidal effect in percent (%):
(§8) (100% effect=the plants have died, 0% effect=like control plants).
(§9) If it is additionally to be tested as to whether safeners can improve the plant compatibility of test substances in the case of crop plants, the following options are used for applying the safener: • seeds of the crop plants are, before sowing, dressed with the safener substance (amount of safener stated in percent, based on the weight of the seed) • before the application of the test substances, the crop plants are sprayed with the safener at a certain application rate per hectare (usually 1 day before the application of the test substances) • the safener is applied together with the test substance as a tank mix (amount of safener stated in g/ha or as a ratio, based on the herbicide).
(§10) By comparing the effect of the test substances on crop plants without or with safener treatment, it is possible to assess the effect of the safener substance.
(§11) Container Trials with Cereal in a Greenhouse
(§12) Mefenpyr 1 Day Prior to Herbicide Application

Experiment [8] deals with Summer barley. Described as above. Conditions: crop damage; 50 g of a.i./ha; 28 days after application. How it is done:
as §6, §7, §8, §9, §10, §11, §12

Consider `CCc1cc(C)cc(OC)c1C1=C(O)C2(CCC(OC)CC2)NC1=O` (single isomer, unassigned) [Example I-a-6], for which the “Lolium (herbicidal effect in percent)” value in experiment [1] and in experiment [4] was 100 each time. Besides, the “Setaria (herbicidal effect in percent)” value was 90 in experiment [2] and 100 in experiment [6]. Moreover, in experiment [3], the “Echinochloa (herbicidal effect in percent)” value is on record as 100. Besides, in experiment [5], the “Avena (herbicidal effect in percent)” value was 100.

For `CCc1cc(C)cc(OC)c1C1=C(O)C2CCCN2C1=O` (stereo not shown) [Example I-a-2], the “Summer wheat observed (%)” value in experiment [7] (12.5 g of a.i./ha) amounted to 40%; in experiment [7] (25 g of a.i./ha), 60%; in experiment [7] (50 g of a.i./ha) it was 95%. The “Summer barley observed (%)” value in experiment [8] is recorded as 90%. In addition, the “Lolium (herbicidal effect in percent)” value in experiment [1] turned out to be 100. For the same molecule, the “Setaria (herbicidal effect in percent)” value in experiment [2] is recorded as 100. In experiment [3], the “Echinochloa (herbicidal effect in percent)” value is given as 100.
